Measured values: patent US6423745B1, “Pyrethroid compound and composition for controlling pest containing the same as an active ingredient” (Sumitomo Chemical Co., Ltd., priority 1998, dated 2002)

How the values were obtained:
[1] = system: common mosquito (Culex pipiens pallens); experiment: Effect of a mosquito coil on common mosquito (knock-down); type: in vivo; parameters: key: Excellent: All the insects were knocked down (the total in the two replications).; Good: 1 to 3 insects were not knocked down (ditto).; Mediocre: 4 to 6 insects were not knocked down (ditto).; Bad: 7 or more insects were not knocked down (ditto); conditions: 0.3 g coil burnt 30 seconds in 0.34 m^3 glass chamber, female adults counted after fifteen minutes
Source text: Effect of a mosquito coil on common mosquito (Culex pipiens pallens)
A base material for mosquito coil (obtained by stirring a 4:3:3 mixture of Tabu powder, Pyrethrum marc and wood powder, adding water thereto, thoroughly kneading the resulting mixture, and molding and drying the kneaded mixture) was uniformly impregnated with a solution of the present compound in acetone so that the material contains a predetermined amount of the compound. The resultant base material was air-dried to obtain a mosquito coil.
Ten female adult common mosquitoes were released in a glass chamber (70 cm cube, capacity: 0.34 m^3). 0.3 Gram of a mosquito coil containing the present compound prepared according to the procedure described above was set on a holder in the center of bottom of the chamber, ignited at one end thereof, and taken out of the chamber after 30 seconds of combustion. The knocked-down common mosquitoes were counted in fifteen minutes after the setting of the coil.
(§1) The same test procedure was repeated for (S)-2-methyl-4-oxo-3-(2-propynyl)-cyclopent-2-enyl (1RS)-cis-3-(2,2-dichlorovinyl)-2,2-dimethylcyclopropanecarboxylate (hereinafter referred to as reference compound A).
In Table 1, the knocking-down activity is indicated according to the following criterion: […]

[2] = system: American cockroach (Periplaneta americana); experiment: Insecticidal activity against American cockroach (topical application); type: in vivo; conditions: 72 h, read-out: Insecticidal activity against American cockroach (LD50)
Procedure: Insecticidal Activity Against American Cockroach (Periplaneta americana) and Toxicity to Rat Insecticidal Activity Against American Cockroach
Each of the present compound and reference compound A were diluted with acetone to prepare dilutions of prescribed concentrations. Each dilution was applied on the sterna of female adult American cockroaches with a micro-applicator in a volume of 1.0 μl per insect. Then, the insects were given water and diet. After 72 hours, the dead and alive were counted. From the mortality, LD50 (mg/kg) value was determined.

Toxicity to rat = conditions: in vivo, male rats, dilution in corn oil, 10 ml/kg, mortality after 7 days
Procedure: Each of the present compound and reference compound A was diluted with corn oil to predetermined concentrations. Each of the dilutions thus prepared was administered to male rats in an amount of 10 ml/kg. The rats were given water and diet. After 7 days, the dead and alive were counted for mortality. From the mortality, LD50 (mg/kg) value was determined.

[3] = system: common mosquito (Culex pipiens pallens); experiment: Effect of spraying of an oil formulation on common mosquito (knock-down); type: in vivo; conditions: 0.7 ml sprayed in 0.34 m^3 glass chamber, female adults counted after two minutes
Source text: Effect of spraying of an oil formulation on common mosquito (Culex pipiens pallens)
Ten female adult common mosquitoes were released in a glass chamber (70 cm cube, capacity: 0.34 m^3). 0.7 Milliliter of an oil formulation containing a predetermined concentration (shown in Table 2) of the present compound prepared according to Formulation Example 7 was sprayed into the chamber through a small side window of the chamber with a spray gun. The knocked-down common mosquitoes were counted in two minutes after the spraying.
as §1
In Table 2, the knocking-down activity is indicated according to the following criterion: […]

[4] = Calculation of safety factor (rat LD50 / American cockroach LD50); conditions: [Toxicity to rat (LD50 value)]/[Insecticidal activity against American cockroach (LD50 value)]
Procedure: Calculation of Safety Factor
The safety factor was calculated from the insecticidal activity against American cockroach and the toxicity to rat according to the following equation.
Safety factor=[Toxicity to rat (LD50 value)]/[Insecticidal activity against American cockroach (LD50 value)]

Row | Structure (SMILES) | Knocking-down activity ([1]; concentration 0.5 % W/W) | LD50 [2] [mg/kg] | LD50 at 7 days (Toxicity to rat) [mg/kg] | Knocking-down activity ([3]; concentration 0.025 % W/W) | Safety factor [4] | Knocking-down activity ([1]; concentration 1.0 % W/W) | Knocking-down activity ([3]; concentration 0.05 % W/W)
1 | C#CCC1=C(C)[C@@H](OC(=O)[C@@H]2[C@@H](C=C(Cl)Cl)C2(C)C)CC1=O [Present compound, (S)-2-methyl-4-oxo-3-(2-propynyl)-cyclopent-2-enyl (1R)-trans-3-(2,2-dichlorovinyl)-2,2-dimethylcyclopropanecarboxylate] | Excellent | 0.72 | > 300 | Good (3 or less insects were not knocked down (the total in the two replications).) | >420 | – | –
2 | C#CCC1=C(C)[C@@H](OC(=O)[C@@H]2[C@H](C=C(Cl)Cl)C2(C)C)CC1=O (racemic) [A, (S)-2-methyl-4-oxo-3-(2-propynyl)-cyclopent-2-enyl (1RS)-cis-3-(2,2-dichlorovinyl)-2,2-dimethylcyclopropanecarboxylate] | Bad (7 or more insects were not knocked down (ditto).) | 4.4 | < 100 | Bad (7 or more insects were not knocked down (ditto).) | <23 | Bad (7 or more insects were not knocked down (ditto).) | Bad (7 or more insects were not knocked down (ditto).)
